SMILES strings stand for the structures.

Data set [1] can be described thus: Elevated plus maze, anxiety-like behaviors. The class given is in vivo, mice. Particulars: sc, 30 min before test; pregnenolone 1, 6, 10 mg/kg; rimonabant 10 mg/kg. Here is the method: The elevated plus maze was made by a central platform (10×10 cm) from which departed 4 arms (45×10 cm) at a 90° angle from each other. Two opposite arms, named closed arms had peripheral wall 50 cm high. The two other arms, named open arms had no walls. The maze was suspended at 66 cm from the floor of the room and was brightly lighted (120 lux). The testing consisted in placing the animal in the central platform and the number of entry and the time spent in each compartment of the maze recorded for 5 min. The number of entry and time spent in the open arms are considered and index of anxiety-like behaviors, whilst the total number of entry are and index of locomotor activity.
One of the major side effects of orthosteric antagonists of the CB1 is the induction of behavioral side effect and in particular an axiodepressive state. […] This test has been chosen because an increase in anxiety was the principal undesirable side effect of this compound in humans.

For data set [2], the target named is T1, CB1 receptor (Mus musculus, UniProt P47746). The experiment in a line: Intravenous self-administration of the CB1 agonist WIN 55,212-2. Further details: tissue Charles River Laboratories (France) (animals); host or cells: living mice, whole animal. The class given is in vivo, CD1 mice. Here is the method:
The intravenous self-administration experiments where the animals learned to self-infuse WIN 55, 212-2 (WIN) were conducted in mouse operant chambers (Model ENV-307A-CT, Medical Associates, Georgia, Vt., USA) using procedures previously described (Mendizabal V, et al., Neuropsychopharmacology. 2006, 31:1957-66).
In order to analyse the effects of pregnenolone administration on the positive reinforcing effect of CB1 activation that are related to the ability of THC to induce addiction, the inventors used the intravenous self-administration model performed in accordance to protocols previously described (Soria et al., 2006; Mendizabal et al., 2006). Intravenous self-administration is considered the best behavioural model of addiction. In this model animals learn to produce an operant response, in our case pocking the nose in a hole, in order to obtain an intravenous infusion of the drug. […] In this schedule animals are required to produce an increasing number of responses (ratio) to obtain one drug infusion, the break-point being the last ratio completed and is considered a reliable measure of the motivation for the drug. On PR session the response requirement to earn an injection escalated according to the following series: 1-2-3-5-12-18-27-40-60-90-135-200-300-450-675-1000.

Data set [3] has as its target T1, CB1 receptor. The experiment in a line: THC inhibition of fEPSP in nucleus accumbens slices. In kind it is cell-based, mice. More on the design: from tissue; host or cells: acute brain slices, nucleus accumbens. Particulars: slices pre-incubated with pregnenolone 100 nM. On the procedure:
Animals were deeply anesthetized with Isoflourane and transcardially perfused with a sucrose-based physiological solution at 4° C. (in mM: 23 NaHCO3, 70 Choline Cl, 75 Sucrose, 25 Glucose, 2.5 KCl, 1.25 NaH2PO4, 7 MgCl2 and 0.5 CaCl2). The brain was removed and sliced (250-300 μm) in the coronal plane using a vibratome (Campden Instruments, Loughborough, UK). During the slicing process, the brain was maintained in the sucrose-based solution. Immediately after cutting, slices were stored at 32° C. for 40 minutes in a low-calcium artificial cerebrospinal fluid (low-Ca^2+ ACSF) that contained (in mM): 23 NaHCO3, 120 NaCl, 11 Glucose, 2.5 KCl, 1.2 NaH2PO4, 2.4 MgCl2, 1.2 CaCl2. Slices were then stored in low-Ca^2+ ACSF at room temperature until recording.
For fEPSPs, extracellular glass recording and stimulating electrodes were filled with ACSF. Synaptic potentials were evoked by means of two electric stimuli (0.1-0.25 mA, 200 μsec duration) delivered at 20 Hz every 10 seconds. Stimulating electrode was placed at a distance>150 μm in the dorsomedial direction from the recoding electrode.
In order to test the effect of pregnenolone on a wider range of THC concentrations, we recorded fEPSP in NAc slices. Due to the possibility to achieved stable fEPSP measurements for several hours, this technique is ideally suited to perform dose-response curves and has previously been used to address CB1 receptor function (Robbe et al., 2001; Mato et al., 2004). Thus, AMPAR-mediated evoked fEPSP were recorded by electrically stimulating local axons.

Another data set deals with CHO cells. Put plainly: Study of metabolism in vitro in CHO cells, steroids in culture medium by GC/MS. In short, it runs like this: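 CHO-K1 cells were seeded at 25×10^4 cells/well in antibiotic-free DMEM-Glutamax with 10% FBS to assess metabolism of pregnenolone derivatives. Pregnenolone, allopregnanolone, epiallopregnanolone, testosterone and 5α-dihydrotestosterone in culture medium were extracted, purified and quantified by GC/MS.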

[4] abbreviates: culture medium of treated CHO cells, 0 = concentrations below the detection limit.
Where [5] appears, read: culture medium, pregnenolone 1 μM, 48 hours.

T1 sequence (P47746 whole entry): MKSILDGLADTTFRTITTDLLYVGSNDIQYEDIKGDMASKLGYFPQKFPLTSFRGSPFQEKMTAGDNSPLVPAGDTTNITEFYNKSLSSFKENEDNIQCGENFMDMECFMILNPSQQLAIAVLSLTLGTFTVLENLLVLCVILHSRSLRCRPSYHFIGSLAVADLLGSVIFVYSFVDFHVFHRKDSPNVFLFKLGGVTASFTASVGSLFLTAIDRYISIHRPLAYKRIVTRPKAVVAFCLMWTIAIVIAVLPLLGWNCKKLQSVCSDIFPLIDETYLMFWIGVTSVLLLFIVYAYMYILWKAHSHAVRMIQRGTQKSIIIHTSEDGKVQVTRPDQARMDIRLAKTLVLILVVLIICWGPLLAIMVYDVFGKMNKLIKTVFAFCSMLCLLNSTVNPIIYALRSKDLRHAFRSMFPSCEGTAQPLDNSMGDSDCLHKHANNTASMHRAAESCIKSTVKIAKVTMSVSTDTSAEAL

Consider `CC(=O)[C@H]1CC[C@H]2[C@@H]3CC=C4C[C@@H](O)CC[C@]4(C)[C@H]3CC[C@]12C` [Pregnenolone, 5-Pregnen-3β-ol-20-one], for which, in data set [1], the “anxiety-like behavior (entries and time spent in open arms)” value is given as “induced no increase in anxiety”. Further, on CB1 receptor [2] (pregnenolone 2 or 4 mg/kg), the “effect on motivation (break-point, progressive ratio schedule)” value is on record as “decreased the motivation to self-administer WIN55,212”. Moreover, at CB1 receptor [2] (pregnenolone 2 or 4 mg/kg before the session, WIN 12.5 μg/kg per injection), the “effect on self-administration of WIN55,212” value is “profoundly reduced the self-administration of WIN55,212”. The “inhibition of fEPSP by THC” value at CB1 receptor [3] (THC 10 μM) is on record as 11.1±3.2%. The “inhibition of fEPSP by THC” value on CB1 receptor [3] (THC 20 μM) was 22.7±2.7%. In addition, on CB1 receptor [3] (THC 40 μM), the “inhibition of fEPSP by THC” value was determined as 34.6±3.1%. Also, in the data set with CHO cells (setting [4]), the DHEA turned out to be 0.00 pg/mL and the TESTO turned out to be 0.00 pg/mL. Besides, in the data set on CHO cells (setting [5]), the ALLO steroid levels is 3529.99 pg/mL, the EPIALLO steroid levels came out at 16963.84 pg/mL, the PREG steroid levels is 11440.66 pg/mL and the THDOC steroid levels turned out to be 77.47 pg/mL.

Source of the values: patent US10150793B2, “Antagonists of CB1 receptor” (INSERM (Institut National de la Santé et de la Recherche …, priority 2011, dated 2018).
